Values quoted from earlier work in PubChem BioAssay AID1259409 (Chemical Carcinogenesis Research Information System (CCRIS), 2018).

Test system: rodent chemically induced tumor inhibition, incidence and multiplicity
Test: CCRIS tumor inhibitor studies
Details: for outcome: Species: Rat

## O=NO
Carcinogen: 2-AMINO-1-METHYL-6-PHENYL-1H-IMIDAZO[4,5-B]PYRID INE, 105650-23-5, Dose [Inhibitor]: 0, 0.2% IN DRINKING WATER FOR 4 WK BEGINNING AT 6 WK OF AGE (STUDY DURATION: 48 WK), Route [Inhibitor]: ORAL, Species: RAT, Strain/Sex: SPRAGUE-DAWLEY/FEMALE, Target Tissue: Type of Lesion: MAMMARY GLAND: ADENOCARCINOMA, Dose [Carcinogen]: 100 MG/KG BW 2/WK FOR 4 WK CONCURRENT WITH INHIBITOR, Promoter: NONE USED
  tumour outcome (control, treated, inhibition, significance): 11/20 (55%), 6/10 (60%), -9%, not significant
Carcinogen: 2-AMINO-1-METHYL-6-PHENYL-1H-IMIDAZO[4,5-B]PYRID INE, 105650-23-5, Dose [Inhibitor]: 0, 0.2% IN DRINKING WATER FOR 4 WK BEGINNING AT 6 WK OF AGE (STUDY DURATION: 48 WK), Route [Inhibitor]: ORAL, Species: RAT, Strain/Sex: SPRAGUE-DAWLEY/FEMALE, Target Tissue: Type of Lesion: MAMMARY GLAND: FIBROADENOMA, Dose [Carcinogen]: 100 MG/KG BW 2/WK FOR 4 WK CONCURRENT WITH INHIBITOR, Promoter: NONE USED
  tumour outcome (control, treated, inhibition, significance): 3/20 (15%), 2/10 (20%), -33%, not significant
Carcinogen: 2-Amino-1-methyl-6-phenylimidazo[4,5-b]pyridine (105650-23-5), Dose [Inhibitor]: 0.2% in drinking water for 4 wk (Study duration 48 wk), Route [Inhibitor]: Oral, Strain/Sex: Sprague Dawley/Female, Target Tissue: Type of Lesion: Mammary gland: Carcinoma, Dose [Carcinogen]: 100 mg/kg twice a wk for 4 wk (Test material solvent: corn oil), Promoter: None used
  outcome: 11/20 (55%), 6/10 (60%), not significant
Carcinogen: 2-Amino-1-methyl-6-phenylimidazo[4,5-b]pyridine (105650-23-5), Dose [Inhibitor]: 0.2% in drinking water for 4 wk (Study duration 48 wk), Route [Inhibitor]: Oral, Strain/Sex: Sprague Dawley/Female, Target Tissue: Type of Lesion: Mammary gland: Fibroadenoma, Dose [Carcinogen]: 100 mg/kg twice a wk for 4 wk (Test material solvent: corn oil), Promoter: None used
  outcome: 3/20 (15%), 2/10 (20%), not significant

## Oc1ccc(/C=C/c2cc(O)cc(O)c2)cc1
Carcinogen: Diethylnitrosamine, 55-18-5, Dose [Inhibitor]: 0, 50, 100, 300 mg/kg bw for 20 wk, Dose [Inhibitor]: 0, 50, 100, 300 mg/kg bw for 20 wk, Route [Inhibitor]: Oral (diet), Strain/Sex: Sprague-Dawley/Female, Target Tissue: Type of Lesion: Liver: nodules, Dose [Carcinogen]: 200 mg/kg bw once in peanut oil after 4 wk on diet, study duration 20 wk, Promoter: Phenobarbital, 50-06-6
  outcome: 100%; 78%; 50% (p<0.05); 40% (p<0.05)

## C/C1=C\C=C(\C(C)C)[C@@H](O)C/C(C)=C/CC/C(C)=C/CC1
Carcinogen: N-METHYL-N-NITROSOUREA, 684-93-5, Dose [Inhibitor]: 0.01% IN DIET BEGINNING 1 WK POST LAST CARCINOGEN DOSE (STUDY DURATION: 26 WK), Route [Inhibitor]: ORAL, Species: RAT, Strain/Sex: CD-FISCHER/FEMALE, Target Tissue: Type of Lesion: LARGE INTESTINE: TUMOR, Dose [Carcinogen]: 2 MG IN WATER 3/WK FOR 3 WK, Promoter: NONE USED
  tumour outcome (control, treated, inhibition, significance): 22/26 (85%), 15/26 (58%), 32%, p<0.01-p<0.05
Carcinogen: N-METHYL-N-NITROSOUREA, 684-93-5, Dose [Inhibitor]: 0.01% IN DIET BEGINNING WEEK 1 AND CONTINUING FOR DURATION OF STUDY (STUDY DURATION: 26 WK), Route [Inhibitor]: ORAL, Species: RAT, Strain/Sex: CD-FISCHER/FEMALE, Target Tissue: Type of Lesion: LARGE INTESTINE: TUMOR, Dose [Carcinogen]: 2 MG IN WATER 3/WK FOR WEEKS 1-3, Promoter: NONE USED
  tumour outcome (control, treated, inhibition, significance): 22/26 (85%), 13/26 (50%), 41%, p<0.01-p<0.05
Carcinogen: N-NITROSOBIS(2-HYDROXYPROPYL)AMINE, 53609-64-6, Dose [Inhibitor]: 0, 0.01% IN DIET FOR 27 WK (STUDY DURATION: 27 WK), Route [Inhibitor]: ORAL, Species: HAMSTER, Strain/Sex: SYRIAN/FEMALE, Target Tissue: Type of Lesion: PANCREAS: TUMOR, Dose [Carcinogen]: 500 MG/KG IN OLIVE OIL 1/WK FOR 27 WK, Promoter: NONE USED
  tumour outcome (control, treated, inhibition, significance): 11/22 (50%), 4/20 (20%), 60%, p<0.05

## Cc1c2ccncc2c(C)c2c1[nH]c1ccccc12
Carcinogen: 7,12-DIMETHYLBENZ[A]ANTHRACENE, 57-97-6, Dose [Inhibitor]: 0, 4.1 NMOL IN 0.2 ML ACETONE APPLIED 5 MIN PRIOR TO CARCINOGEN (STUDY DURATION: 21 WK), Route [Inhibitor]: DERMAL, Species: MOUSE, Strain/Sex: SENCAR/FEMALE, Target Tissue: Type of Lesion: SKIN: PAPILLOMA, Dose [Carcinogen]: 10 NMOL IN 0.2 ML ACETONE ONCE, Promoter: 12-O-TETRADECANOYLPHORBOL-13-ACETATE, 16561-29-8
  tumour outcome (control, treated, inhibition, significance): 79%, 100%, -27%, not calculated
Carcinogen: 7,12-DIMETHYLBENZ[A]ANTHRACENE, 57-97-6, Dose [Inhibitor]: 0, 41 NMOL IN 0.2 ML ACETONE APPLIED 5 MIN PRIOR TO CARCINOGEN (STUDY DURATION: 21 WK), Route [Inhibitor]: DERMAL, Species: MOUSE, Strain/Sex: SENCAR/FEMALE, Target Tissue: Type of Lesion: SKIN: PAPILLOMA, Dose [Carcinogen]: 10 NMOL IN 0.2 ML ACETONE ONCE, Promoter: 12-O-TETRADECANOYLPHORBOL-13-ACETATE, 16561-29-8
  tumour outcome (control, treated, inhibition, significance): 79%, 87%, -10%, not calculated
Carcinogen: 7,12-DIMETHYLBENZ[A]ANTHRACENE, 57-97-6, Dose [Inhibitor]: 0, 410 NMOL IN 0.2 ML ACETONE APPLIED 5 MIN PRIOR TO CARCINOGEN (STUDY DURATION: 21 WK), Route [Inhibitor]: DERMAL, Species: MOUSE, Strain/Sex: SENCAR/FEMALE, Target Tissue: Type of Lesion: SKIN: PAPILLOMA, Dose [Carcinogen]: 10 NMOL IN 0.2 ML ACETONE ONCE, Promoter: 12-O-TETRADECANOYLPHORBOL-13-ACETATE, 16561-29-8
  tumour outcome (control, treated, inhibition, significance): 79%, 47%, 41%, not calculated
Carcinogen: 7,14-DIMETHYLBENZO[A,H]ANTHRACENE, 35335-07-0, Dose [Inhibitor]: 0, 4.1 NMOL IN 0.2 ML ACETONE APPLIED 5 MIN PRIOR TO CARCINOGEN (STUDY DURATION: 21 WK), Route [Inhibitor]: DERMAL, Species: MOUSE, Strain/Sex: SENCAR/FEMALE, Target Tissue: Type of Lesion: SKIN: PAPILLOMA, Dose [Carcinogen]: 47.5 NMOL IN 0.2 ML ACETONE ONCE, Promoter: 12-O-TETRADECANOYLPHORBOL-13-ACETATE, 16561-29-8
  tumour outcome (control, treated, inhibition, significance): 97%, 100%, -3%, not calculated
Carcinogen: 7,14-DIMETHYLBENZO[A,H]ANTHRACENE, 35335-07-0, Dose [Inhibitor]: 0, 41 NMOL IN 0.2 ML ACETONE APPLIED 5 MIN PRIOR TO CARCINOGEN (STUDY DURATION: 21 WK), Route [Inhibitor]: DERMAL, Species: MOUSE, Strain/Sex: SENCAR/FEMALE, Target Tissue: Type of Lesion: SKIN: PAPILLOMA, Dose [Carcinogen]: 47.5 NMOL IN 0.2 ML ACETONE ONCE, Promoter: 12-O-TETRADECANOYLPHORBOL-13-ACETATE, 16561-29-8
  tumour outcome (control, treated, inhibition, significance): 97%, 93%, 4%, not calculated
Carcinogen: 7,14-DIMETHYLBENZO[A,H]ANTHRACENE, 35335-07-0, Dose [Inhibitor]: 0, 410 NMOL IN 0.2 ML ACETONE APPLIED 5 MIN PRIOR TO CARCINOGEN (STUDY DURATION: 21 WK), Route [Inhibitor]: DERMAL, Species: MOUSE, Strain/Sex: SENCAR/FEMALE, Target Tissue: Type of Lesion: SKIN: PAPILLOMA, Dose [Carcinogen]: 47.5 NMOL IN 0.2 ML ACETONE ONCE, Promoter: 12-O-TETRADECANOYLPHORBOL-13-ACETATE, 16561-29-8
  tumour outcome (control, treated, inhibition, significance): 97%, 90%, 7%, not calculated
Carcinogen: DIBENZO[A,H]ANTHRACENE, 53-70-3, Dose [Inhibitor]: 0, 4.1 NMOL IN 0.2 ML ACETONE APPLIED 5 MIN PRIOR TO CARCINOGEN (STUDY DURATION: 21 WK), Route [Inhibitor]: DERMAL, Species: MOUSE, Strain/Sex: SENCAR/FEMALE, Target Tissue: Type of Lesion: SKIN: PAPILLOMA, Dose [Carcinogen]: 200 NMOL IN 0.2 ML ACETONE ONCE, Promoter: 12-O-TETRADECANOYLPHORBOL-13-ACETATE, 16561-29-8
  tumour outcome (control, treated, inhibition, significance): 100%, 87%, 13%, not calculated
Carcinogen: DIBENZO[A,H]ANTHRACENE, 53-70-3, Dose [Inhibitor]: 0, 41 NMOL IN 0.2 ML ACETONE APPLIED 5 MIN PRIOR TO CARCINOGEN (STUDY DURATION: 21 WK), Route [Inhibitor]: DERMAL, Species: MOUSE, Strain/Sex: SENCAR/FEMALE, Target Tissue: Type of Lesion: SKIN: PAPILLOMA, Dose [Carcinogen]: 200 NMOL IN 0.2 ML ACETONE ONCE, Promoter: 12-O-TETRADECANOYLPHORBOL-13-ACETATE, 16561-29-8
  tumour outcome (control, treated, inhibition, significance): 100%, 97%, 3%, not calculated
Carcinogen: DIBENZO[A,H]ANTHRACENE, 53-70-3, Dose [Inhibitor]: 0, 410 NMOL IN 0.2 ML ACETONE APPLIED 5 MIN PRIOR TO CARCINOGEN (STUDY DURATION: 21 WK), Route [Inhibitor]: DERMAL, Species: MOUSE, Strain/Sex: SENCAR/FEMALE, Target Tissue: Type of Lesion: SKIN: PAPILLOMA, Dose [Carcinogen]: 200 NMOL IN 0.2 ML ACETONE ONCE, Promoter: 12-O-TETRADECANOYLPHORBOL-13-ACETATE, 16561-29-8
  tumour outcome (control, treated, inhibition, significance): 100%, 97%, 3%, not calculated

## CC1=CCC(C(C)(O)CO)CC1 (stereo not drawn)
Carcinogen: 7,12-DIMETHYLBENZ[A]ANTHRACENE, 57-97-6, Dose [Inhibitor]: 0, 1% IN DIET FOR 3 WK BEGINNING 2 WK PRIOR TO CARCINOGEN DOSE (STUDY DURATION: 20 WK), Route [Inhibitor]: ORAL, Species: RAT, Strain/Sex: WISTAR/FEMALE, Target Tissue: Type of Lesion: MAMMARY GLAND: CARCINOMA, Dose [Carcinogen]: 50 MG/KG IN SESAME OIL ONCE, Promoter: NONE USED
  tumour outcome (control, treated, inhibition, significance): 98%, 84%, 14%, not significant
